Structures can show the parent of a compound that is named as a salt.
Legend:
Assay type in all cases: cell-based, mouse
tau = experiment: Assay for tau: Western blot of tau isoforms in wild type mES cell-derived pyramidal neurons; design: key: *: asterisk denotes hit compounds; conditions: treated at 14 DIV for 48 hr, Western blot (CP13, PHF)
Description: (§1) In certain embodiments, the inhibitor of the present invention is identified by an assay directed to detecting inhibitors of tau phosporylation. For example, but not by way of limitation, such assays can include assays such as those prepared as follows. First, wild type, mouse embryoinc stem cells are differentiated into pyramidal neurons using the protocol described in Example 1. ES cell-derived neurons are treated at 14 DIV for 48 hr with either vehicle (D, DMSO) or various histone demethylase inhibitors (inhibitor compounds 1-10). Tau isoforms are detected by Western blot analysis of the cell lysates using the indicated antibodies, See FIG. 11. CP13 recognizes tau phosphorylation at ser202/205. PHF recognizes tau phosphorylation at ser396/404. TUJ1 (Neuron-specific class III beta-tubulin) is used as a loading control.
as §1, with “Wild” for “In certain embodiments, the inhibitor of the present invention is identified by an assay directed to detecting inhibitors of tau phosporylation. For example, but not by way of limitation, such assays can include assays such as those prepared as follows. First, wild”, “were” for “are”
List of inhibitor compounds tested for their ability to inhibit levels of total tau, disease-associated phosphorylated or presence of modified forms of tau include (asterisk denotes hit compounds): *1. pargyline (LSD1 inhibitor)—1000 uM; *2. deprenyl (LSD1 inhibitor)—1000 uM; *3. propargyl (LSD1 inhibitor)—100 uM; 4. phenelzine (LSD1 inhibitor)—100 uM; 5. tranylcyprmine (LSD1 inhibitor)—200 uM; *6. S2101 (LSD1 Inhibitor II, EMD Biosciences catalog #489477)—LSD1 inhibitor—1 uM; 7. N-oxyalylglycine (NOG) (JMJD2s inhibitor)—1000 uM; *8. pyradine (JMJ2A and E inhibitor)—1000 uM; *9. disulfiram (JMJ2A inhibitor)—20 uM; *10. ebselen (JMJ2A inhibitor)—20 uM.

Aβ40 [1] = experiment: Aβ40 detection by human specific ELISA in conditioned medium of Tg2576 mES cell derived neurons
Source text: (§2) The reliable detection of proteolytic derivatives of APP, including AP, is critical for a physiologically relevant cell based AD model. It was established that ES cell-derived pyramidal neurons express the major proteolytic enzymes mediating APP processing, β-site APP cleaving enzyme (BACE1) and presenilin 1 (PS1) (FIG. 2a). Endogenous APP, BACE1 and PS1 were abundantly detected in ES cell-derived pyramidal neurons at DIV 7, 14, 21. APP and BACE1 were not detected in ES cells, but PS1 was detectable consistent with it's described role in development (Wong, P. C. et al. Nature 387, 288-292 (1997)). To achieve robust and reproducible neuronal expression of human APP, ES cells from the inner cell mass of blastocysts were isolated from a well characterized mouse model of AD, Tg2576. Tg2576 mice express human APP, harboring the Swedish mutation (APPsw) under the control of hamster PrP promoter (Hsiao, K. et al. Science 274, 99-102 (1996)). […] In Tg2576 ES cell derived neurons, APP cleavage products were readily detectable. C-terminal APP fragments (CTFs) were detected in the neuronal lysate by Western blot analysis (FIG. 2b). Both human β- and α-secretase-derived secreted soluble APP (sAPPβ and sAPPα, respectively) were detected using immunoprecipitation of conditioned medium with sβsw and Aβ levels were detected in conditioned media using a human Aβ specific ELISA (FIG. 2b-e). […] Consistent with previous studies in cell models and mouse brain, CTFs resulting from APP cleavage, accumulated in response to γ-secretase inhibitor treatment (FIG. 2b). Identical results were seen when neurons were infected with an APPsw Lenti virus and APP processing was analyzed (FIG. 6a-c). […] Thus, these neurons are suitable for lentiviral mediated genetic manipulation studies.
(§3) To accommodate high-throughput screening, Aβ detection assays using the Tg2576 mES cell derived neurons were miniaturized for a 96 well platform. […] It was determined that the optimal cell density of 1.5×10^5 cells/cm^2 maximized the cell viability signal. […]
(§4) Day 12-30 neurons were infected with a lentivirus carrying the Swedish variant of human APP (pLenti6/hAPPsw). […] The levels of Aβ42 and Aβ40 in conditioned media were determined using sandwich ELISA (Invitrogen) according to the manufacturer's protocol. Total Aβ was detected by immunoprecipitating conditioned medium with 6E10 (Covance) or 7N22 (Invitrogen) antibodies overnight at 4° C. Samples were separated using the NuPAGE gel system and Aβ peptides detected by quantitative Western blotting with 6E10. Full-length APP was detected by Western blot analysis using 6E10 (Covance) or polyclonal antibody against the C-terminus of APP (APP-Ctmaxi) (Okada, H., et al. FASEB J. 24, 2783-94 (2010)). […]

Aβ42 = Aβ42 detection by human specific ELISA in conditioned medium of Tg2576 mES cell derived neurons
Source text: as §2, §3, §4

sAPPβ = experiment: Immunoprecipitation/Western blot of secreted sAPPβ from conditioned medium of Tg2576 ES cell derived neurons
Source text: (§5) The reliable detection of proteolytic derivatives of APP, including AP, is critical for a physiologically relevant cell based AD model. It was established that ES cell-derived pyramidal neurons express the major proteolytic enzymes mediating APP processing, β-site APP cleaving enzyme (BACE1) and presenilin 1 (PS1) (FIG. 2a). Endogenous APP, BACE1 and PS1 were abundantly detected in ES cell-derived pyramidal neurons at DIV 7, 14, 21. APP and BACE1 were not detected in ES cells, but PS1 was detectable consistent with it's described role in development (Wong, P. C. et al. Nature 387, 288-292 (1997)). […] In Tg2576 ES cell derived neurons, APP cleavage products were readily detectable. C-terminal APP fragments (CTFs) were detected in the neuronal lysate by Western blot analysis (FIG. 2b). Both human β- and α-secretase-derived secreted soluble APP (sAPPβ and sAPPα, respectively) were detected using immunoprecipitation of conditioned medium with sβsw and Aβ levels were detected in conditioned media using a human Aβ specific ELISA (FIG. 2b-e). […] Identical results were seen when neurons were infected with an APPsw Lenti virus and APP processing was analyzed (FIG. 6a-c). […]
(§6) Day 12-30 neurons were infected with a lentivirus carrying the Swedish variant of human APP (pLenti6/hAPPsw). […] Samples were separated using the NuPAGE gel system and Aβ peptides detected by quantitative Western blotting with 6E10. […]

sAPPα = experiment: Immunoprecipitation/Western blot of secreted sAPPα from conditioned medium of Tg2576 ES cell derived neurons
Source text: as §5, §6

Aβ40 [2] = experiment: Screen of NIH clinical collection compounds for reduction of Aβ40 in Tg2576 mES cell derived neurons (Aβ40 ELISA); design: Percent Inhibition: concentration or dose not given beside the values; conditions: for Percent Inhibition: Aβ40 in conditioned media vs DMSO control, neurons treated on day 8 after plating for 24 hours
Description: In certain embodiments, the inhibitor of the present invention is identified by an assay directed to detecting inhibitors of Aβ40 production. For example, but not by way of limitation, such assays can include assays such as those prepared as follows. First, mouse ES cells isolated from Tg2576 mice are subjected to directed differentiation as previously described. After dissociation of embryoid bodies, neurons are plated in poly-D-lysine and laminin coated 96 well black plates at a density of 1.5×10^5 cells/cm2 which is 45,000 cells/well. Media is changed to N2 containing media after 4 hours and again the next day after plating. Two days after plating, media is changed to B27 containing media which is replaced every 2 days after that. On day 8 after plating the mouse ES derived neurons are treated with the compound of interest. […] In certain embodiments the compounds are incubated with the cells for 24 hours in 150 μl B27 media. In certain embodiments each plate of ES derived neurons is treated with NCC compounds, DMSO (negative control), and the positive controls for Aβ reduction BACE inhibitor IV (Calbiochem) and Compound E. After 24 hours, 100 μl conditioned media can then be removed and frozen at −80° C. until further analysis for Aβ40 content. The remaining cells in 50 μl media can be subjected to cell viability assay CellQuanti Blue (BioAssay Systems). In certain embodiments, conditioned media can be subjected to Aβ40 quantification, e.g., by using Aβ40 ELISA (Invitrogen).
Mouse ES cells isolated from. Tg2576 mice were subjected to directed differentiation as previously described. After dissociation of embryoid bodies, neurons were plated in poly-D-lysine and laminin coated 96 well black plates at a density of 1.5×10^5 cells/cm2 which is 45,000 cells/well. Media was changed to N2 containing media after 4 hours and again the next day after plating. Two days after plating, media was changed to B27 containing media which was replaced every 2 days after that. […] Each plate of ES derived neurons was treated with NCC compounds, DMSO (negative control), and the positive controls for Aβ reduction BACE inhibitor IV (Calbiochem) and Compound E. After 24 hours, 100 μl conditioned media was removed and frozen at −80° C. until further analysis for Aβ40 content. The remaining cells in 50 μl media were subjected to cell viability assay CellQuanti Blue (BioAssay Systems). Conditioned media was subjected to Aβ40 quantification using Aβ40 ELISA (Invitrogen). Compounds which lowered Aβ40 levels in the conditioned media were identified as hits if they reduced Aβ40 by 4 standard deviations of the negative control (DMSO) but maintained cell viability. Cell viability was defined by CellQuanti Blue fluorescent signal maintained within two standard deviations of fluorescent signal from the control treated (DMSO) cells. High potency hits were defined by reducing Aβ40 40% or more (signal 60% of DMSO control).
Hits were defined as lowering Aβ by 4 standard deviations below the negative control (DMSO) treated condition but maintaining cell viability within 2 standard deviations of control.

[3] = Tg2576 ES cell derived neurons, conditioned medium
[4] = optimized 96 well platform, 24 hours

C#CCN(C)Cc1ccccc1 [pargyline]
ability to inhibit levels of total tau, disease-associated phosphorylated or presence of modified forms of tau (tau; 1000 uM): *

O=c1c2ccccc2[se]n1-c1ccccc1 [ebselen]
ability to inhibit levels of total tau, disease-associated phosphorylated or presence of modified forms of tau (tau; 20 uM): *

CCN(CC)C(=S)SSC(=S)N(CC)CC [disulfiram]
ability to inhibit levels of total tau, disease-associated phosphorylated or presence of modified forms of tau (tau; 20 uM): *

C[C@@H](NC(=O)c1cc(C(=O)N[C@@H](Cc2ccccc2)[C@H](O)CNC2CC2)cc(N(C)S(C)(=O)=O)c1)c1ccccc1 [BACE inhibitor]
secretion of Aβ40 (Aβ40 [1]; [3]): decreased
IC50 (Aβ40 [1]; [4]): 44.7 nM
secretion of Aβ42 (Aβ42; [3]): decreased
IC50 (Aβ42; [4]): 7.8 nM
secretion of sAPPβ (sAPPβ): decreased

C#CCN(C)[C@H](C)Cc1ccccc1 [deprenyl]
ability to inhibit levels of total tau, disease-associated phosphorylated or presence of modified forms of tau (tau; 1000 uM): *

CC(C)C[C@H](CC(=O)NO)C(=O)N[C@H](C(=O)N[C@@H](C)C(=O)NCCN)C(C)(C)C [TAPI-2]
level of sAPPα (sAPPα): decrease

CO[C@@H]1[C@@H](O[C@@H]2O[C@H](C)[C@@H](O[C@H]3C[C@@](C)(O)[C@@H](OC(=O)CC(C)C)[C@H](C)O3)[C@H](N(C)C)[C@H]2O)[C@@H](CC=O)C[C@@H](C)[C@@H](O)/C=C/C=C/C[C@@H](C)OC(=O)C[C@H]1O [kitasamycin]
Percent Inhibition (Aβ40 [2]): 16%

CC(=O)OCC(=O)NCCCOc1cccc(CN2CCCCC2)c1 [roxatidine acetate]
Percent Inhibition (Aβ40 [2]): 12%

CC(C(=O)O)c1ccc(CC2CCCC2=O)cc1 (stereo not shown) [loxoprofen]
Percent Inhibition (Aβ40 [2]): 9%

OC[C@H]1O[C@@H](Oc2cc(O)cc(/C=C/c3ccc(O)cc3)c2)[C@H](O)[C@@H](O)[C@@H]1O [piceid]
Percent Inhibition (Aβ40 [2]): 11%

CN1C(=O)CN=C(c2ccccc2)c2cc([N+](=O)[O-])ccc21 [nimetanzepam]
Percent Inhibition (Aβ40 [2]): 13%

NNCCc1ccccc1 [phenelzine sulfate]
Percent Inhibition (Aβ40 [2]): 70%
IC50 (Aβ40 [2]; Mus musculus, Neuron, Aβ40 lowering, high priority hits confirmed from independent compound sources, read-out: IC50): 2500 nM

C[C@@H](N=C(NC#N)Nc1ccncc1)C(C)(C)C [pinacicil]
Percent Inhibition (Aβ40 [2]): 17%

salbutamol sulfate
Percent Inhibition (Aβ40 [2]): 70%

NC1CC1c1cc(F)cc(F)c1OCc1ccccc1 (stereo not shown) [S2101]
ability to inhibit levels of total tau, disease-associated phosphorylated or presence of modified forms of tau (tau; 1 uM): *

CN1C(C(=O)Nc2ccccn2)=C(O)c2ccccc2S1(=O)=O [piroxicam]
Percent Inhibition (Aβ40 [2]): 9.5%

CNS(=O)(=O)Cc1ccc2[nH]cc(CCN(C)C)c2c1 [sumatriptan succinate]
Percent Inhibition (Aβ40 [2]): 8%
